Laboratory results published in patent US20060111420A1, “Sorbicillactone-a derivatives for the treatment of tumour and viral diseases” (Johannes Gutenberg-Universitat Mainz, priority 2002, published 2006).

Assays:
[1] = tested on: human foreskin-fibroblasts; assay: Proliferation of human foreskin-fibroblasts; assay type: cell-based; settings: 30 μg/ml; cell count microscopically
mice-ear oedema = assay: TPA-induced mice-ear oedema; assay type: in vivo, mice (Swiss); settings: 20 μg topically 10 min after TPA (10 μg); n=5; P<=0.01
[2] = tested on: L5178y mouse lymphoma cellular system (ATCC CRL 1722); assay: Antitumoural activity, L5178y cell proliferation (XTT); assay type: cell-based; settings: for Optical density (595 nm): 72 h, XTT, control 0.38; for cellular proliferation after 72 h: at >0.1 μg/ml
[3] = target: phospholipase A2 [from bee's poison] (Apis mellifera, UniProt P00630); assay: biochemical; settings: read-out: inhibition of phospholipase A2
Sequence of phospholipase A2 [from bee's poison] (P00630 34-167 limits assumed): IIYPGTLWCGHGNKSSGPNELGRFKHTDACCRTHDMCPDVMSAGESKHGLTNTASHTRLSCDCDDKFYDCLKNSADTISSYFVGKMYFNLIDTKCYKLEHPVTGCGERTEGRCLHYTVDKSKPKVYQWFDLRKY

For C/C=C/C=C/C(O)=C1/C(=O)C(C)=C(O)[C@@]2(C)OC(=O)[C@@](C)(NC(=O)/C=C/C(=O)O)[C@@H]12 [Sorbicillacton A, sorbicillacton A], the “effect on the proliferation” value [1] was “no effect on the proliferation”, the “inhibition of the formation of the oedema” value (mice-ear oedema) was 39.2±5.3% and the “Optical density (595 nm)” value ([2]; 0.1 μg/ml) was 0.24. The “Optical density (595 nm)” value ([2]; 0.3 μg/ml) was 0.19, the “Optical density (595 nm)” value ([2]; 1.0 μg/ml) was 0.07 and the “Optical density (595 nm)” value ([2]; 3.0 μg/ml) was 0.06. The “cellular proliferation after 72 h” value [2] was “drastically reduced”, the inhibition at 2 µg/mL [3] was ~80% and the mortality (NMRI-mice; 20 mg/kg per day i.p. for five days) was “None of the test animals dies”. For the same molecule, the sub-acute toxicity (NMRI-mice; male, NMRI, mouse, in vivo, ip, 5 days) was > 20 mg/kg.
With C/C=C/C=C/C(O)=C1/C(=O)C(C)=C(O)C2(C)OC(=O)C(C)(NC(=O)C3NN=CC3C(=O)OC)C12 (stereo not drawn) [SOA-D1] the “Optical density (595 nm)” value ([2]; 0.1 μg/ml) was 0.29, the “Optical density (595 nm)” value ([2]; 0.3 μg/ml) was 0.22 and the “Optical density (595 nm)” value ([2]; 1.0 μg/ml) was 0.05. The “Optical density (595 nm)” value ([2]; 3.0 μg/ml) was 0.03 and the “cellular proliferation after 72 h” value [2] was “drastically reduced”.
